Data on two compounds can be found in patent US20090123940A1, “MOLECULES INVOLVED IN SYNAPTOGENESIS AND USES THEREFOR” (THE JOHNS HOPKINS UNIVERSITY, priority 2007, published 2009).

Test [1] has as its system Narp association with AMPA receptor subunits. The test can be described thus: Co-immunoprecipitation of Narp with AMPA receptor subunits in HEK-293 cells. Type of test: cell-based. To be noted: 1 mM tunicamycin. The source says:
Co-immunoprecipitation experiments were used to examine whether Narp is physically associated with AMPA receptors in HEK-293 cells.

For test [2], the system named is NPR-myc and GluR2-HA in COS-7 cells. The test can be described thus: Live staining of NPR clusters in transfected COS-7 cells after PMA. The class given is cell-based. The method, then: Immunocytochemical staining. Immunocytochemical staining of heterologous cells was performed as described (Xu et al., supra). For PMA-stimulation experiments, PMA (Sigma Cat #: P8139) at (150 nM) was added 90 minutes prior to live staining. Images were viewed and captured using Nikon E800 epifluorescence microscope fitted with a Princeton Instruments CCD camera. For live staining, neurons cultured on coverslips were incubated at 10° C. with the appropriate primary antibodies at the indicated dilutions in conditioned culture medium for 20 min. They were then washed with PBS and fixed with 4% paraformaldehyde/4% sucrose in PBS for 20 min at room temperature. Cells were permeablized with 0.2% Triton X-100 in PBS for 5 min and then blocked in 10% normal goat serum in PBS for 1 hr at room temperature. […] For quantification of the punctate structures (e.g. GluR1), images were thresholded by grey value to differentiate single puncta. Segments of dendrites were selected and number of puncta was calculated per […] of length dendrite. Figures show ratios of calculated mean densities (number of puncta per unit length) from treated/control. Error bars were calculated using SEM and Gaussian error propagation. n=number of measured dendrites. Significance was determined by paired Student's T-test. […]

Test [3] has as its system NPR cleavage at Site A (TACE). The test can be described thus: NPR cleavage assay in transfected HEK293T cells. Type of test: cell-based, rat. To be noted: PMA 150 nM, cells transfected with NPR. The method, then:
Cleavage Assay HEK293T cells were plated in OptiMEM (Invitrogen, Carlsbad, Calif.) containing 5% FBS onto 6-well dishes at a density of 4×10^5 cells/mL (2 mL/well) 1 day before transfection. Cells were transfected with NPR in pRK5 using LipofectAMINE 2000 (Invitrogen, Carlsbad Calif.). After 24 hr the medium was replaced with serum-free OptiMEM. […] Samples from each well were obtained at specific time points, immediately placed on ice, centrifuged at 15,000 g to remove cell debris, and then treated with 2% β-mercaptoethanol containing loading buffer. At the end of the time course, the cells were lysed with RIPA buffer, centrifuged to remove cell debris, and treated with 2% β-mercaptoethanol in loading buffer. Samples (20 μL of medium or lysate diluted to 1/5) were run on SDS-PAGE gels and analyzed by Western blotting.

As for tunicamycin, the “association between Narp and AMPA receptor subunits” value in test [1] was “no effect”.

For `CCCCCCCCCCCCCC(=O)O[C@@H]1[C@@H](C)[C@@]2(O)[C@@H](C=C(CO)C[C@]3(O)C(=O)C(C)=C[C@@H]23)[C@@H]2C(C)(C)[C@]12OC(C)=O` [PMA, phorbol myristate acetate], the “NPR distribution on COS-7 cells expressing NPR-myc” value in test [2] (PMA 150 nM, 90 min) is on record as “large clusters of NPR were detected”. Further, in test [2] (PMA treated), the “clustering of NPR and GluR2 in COS-7 cells co-transfected with NPR-myc and GluR2-HA” value was “exhibited co-clusters of NPR and GluR2”. Further, the “accumulation of LFC-NPR in the medium” value in test [3] is “increased the accumulation of LFC-NPR in the medium”.
